According to patent publication US20230136824A1, “N-N-[…] (DMT) AND DMT ANALOG COMPOSITIONS, METHODS OF MAKING, AND METHODS OF USE THEREOF” (ATAI Life Sciences AG, priority 2021, published 2023):
Values after ≈ are worked out from the molar mass of the structure shown.

What was measured:
[1] = pH of the donor chamber media in permeation study; assay type: physicochemical; conditions: PBS pH 7.0
[2] = Forced degradation study of DMT under stress conditions (HPLC); assay type: physicochemical; conditions: for % Assay: exposure overnight
Experimental: A forced degradation study of DMT was performed under different stress conditions and samples are analyzed using HPLC.
It is important to incorporate antioxidant(s) in the formulation to prevent oxidation of DMT during the shelf life and to form stable films.

[3] = Ex-vivo permeation through porcine buccal mucosa (Franz diffusion cell); assay type: in vitro ADME; conditions: 180 minutes, phosphate buffered solution 0.01M pH=7
Experimental: Further, permeability of DMT through prepared films were evaluated using ex-vivo permeation study i.e., using porcine buccal mucosa as presented below. Ex-vivo permeation is well studied using Franz diffusion cell or Using chambers utilizing animal mucosa (e.g., Pig or sheep buccal mucosa) or by using commercially available synthetic membranes (e.g., Permeapad®). The Franz diffusion cell consists of two compartments; one is the donor compartment, the other is the receptor compartment of 18 mL capacity and having 0.785 cm^2 effective diffusion area. The temperature is maintained at 37° C. by water jacket. […]
Further, all prepared films are evaluated for the permeability through pig buccal mucosa and compared against the permeability of API dispersion in PBS pH 7.0 as presented in FIG. 6. In one aspect, the present invention involves a DMT polymeric film that releases about 5% or less DMT in 60 minutes, about 15% DMT or less in 180 minutes when measured through pig mucosa in phosphate buffered solution 0.01M pH=7, as shown in FIG. 6.
Further, permeability of DMT through prepared films were evaluated using ex-vivo permeation study i.e., porcine buccal mucosa or Permeapad® as presented below.

[4] = Physicochemical constants of DMT (log P, pKa, glass transition temperature); conditions: amorphous N,N-DMT
Excerpt: DMT free base is a lipophilic molecule (log P−2.573) with a small backbone (Mol wt. 188.27 g/mol).
The pH of the film plays a very important role in balancing its ionized vs unionized form at the site. In the present invention microenvironmental pH is maintained to achieve balance between ionized and unionized form and thus the permeation across the mucosa.

[5] = DMT solubility in various solvents (super saturated mixture, HPLC); assay type: physicochemical
Excerpt: Solubility studies of DMT have been carried out in various solvents by preparing super saturated mixture and analyzed using HPLC.
This warrants a strong need for improvement solubility of DMT API in the film formulation for better bioavailability.

[6] = Solubility of buccal film and neat API in Phosphate buffer saline pH 6.8; assay type: physicochemical
[7] = Excipient compatibility of DMT binary mixtures at 50° C./75% RH (HPLC impurity levels); assay type: physicochemical
Experimental: Further, several excipients for formulating transmucosal films with desired properties have been analyzed for compatibility with DMT at 50° C./75% RH utilizing HPLC method to detect impurity levels.

For `CN(C)CCc1c[nH]c2ccccc12` [DMT, N, N-Dimethyltryptamine], the “pH of the donor chamber media” value [1] was 9.5, the “Oxidation upon force degradation study” value [2] was “highly prone to oxidation” and the “% Assay” value ([2]; 0.1N HCl) was 99.7%. The “% Assay” value ([2]; 0.1N NaOH) was 99.4%, the “% Assay” value ([2]; 3% peroxide) was 26.6% and the “% Assay” value ([2]; 70° C.) was 98.5%. The “DMT released through pig mucosa” value [3] was “about 33%”, the Glass transition temperature [4] was −18 °C and the solubility ([5]; Saliva Buffer (pH 6.8)) was 2.3 mg/mL (≈ 12.2 mM). It also gave a solubility ([5]; acetone) of over 126 mg/mL, a solubility ([5]; acetonitrile) of over 94 mg/mL and a solubility ([5]; ethanol) of over 98 mg/mL. The solubility ([5]; isopropyl alcohol water) was over 98 mg/mL, the solubility ([5]; methanol) was over 98 mg/mL and the solubility ([5]; methanol:water (50:50)) was 26 mg/mL (≈ 138 mM). It also gave a solubility ([5]; methanol:water (70:30)) of over 50 mg/mL, a solubility ([5]; methyl isobutyl ketone) of over 90 mg/mL and a solubility ([5]; p-dioxane) of over 104 mg/mL. It also gave a solubility ([5]; tetrahydrofuran) of over 106 mg/mL, a solubility ([5]; water) of under 1 mg/mL and a solubility [6] of 2.3 mg/mL (≈ 12.2 mM). For the same compound, the “No. of Impurities” value [7] was 6 and the “Total Impurities %” value [7] was 2.17%.
